# In patent US20250195508A1, “COMPOUNDS AND COMPOSITIONS FOR ANITMALARIAL THERAPEUTIC AND PROPHYLACTIC USE” (UNIVERSITY OF CENTRAL FLORIDA RESEARCH FOUNDATION, INC., priority 2022, published 2025):
# Tested on: P. berghei luc sporozoites (Pb-Luc)
# Assay: Prophylaxis assay, single IV dose 6 hours before Pb-Luc sporozoite infection
# Assay type: in vivo, mice
# Conditions: single dose 15 mg/kg 6 hours before infection; after 22 days
# Method: (§1) TL5-135 was dissolved or resuspended in a suspending vehicle consisting of 30% DMSO, 1% methylcellulose, 0.5% TWEEN-80, and 68.5% ultrapure water. GNF179 was resuspended in 30% DMSO, 30% PEG400, 5% TWEEN-80, 35% saline, and administered intravenously.
# (§2) For prophylaxis assays, a single dose of […] was administrated 6 hours before infection. For therapeutic assays, in a 4-day's Peters test, 4 doses (each 15 mg/kg) were administrated 6, 18, 30, and 42 hours post infection.
# (§3) The antimalarial activity was measured as a percent reduction in parasitemia from day one until day twelve post-infection.
# Infection was initiated using 100,000 P. berghei luc sporozoites (Pb-Luc). The drugs were administered IV at 50 mg/kg, single dose 6 hours prior. I: infected, UI: uninfected.
# (§4) Groups of 5 mice were infected with 100,000 Pb-Luc sporozoites by IV injection. Prophylactic (single dose of 50 mg/kg through IV injection, 6 hour before infection) and therapeutic (4-day Peters test, 4 doses of 15 mg/kg each time were administrated post-infection at 6, 18, 30, and 42 hours post infection (hpi) and the activity of the compounds was evaluated. See FIG. 8A. The parasitemia was estimated after flow cytometric enumeration of rodent malaria parasite Pb-Luc-infected red blood cells (RBS) stained with SYBR Green I, from day 3 until 20.
# (§5) TL5-135 and GNF179 antimalarial compounds were tested against Pb-Luc sporozoites. Prophylactic activity (single dose of 15 mg/kg through an IV injection, 6 hours before infection) and therapeutic activity (4-day Peters test, 4 doses of 15 mg/kg each time was administrated at 6, 18, 30, and 42 hpi of the TL5-135 antimalarial compound was evaluated. As before, groups of five mice were infected with 100,000 Pb-Luc sporozoites by IV injection. The parasitemia was estimated after flow cytometric enumeration of rodent malaria parasite Pb-Luc-infected red blood cells (RBS) stained with SYBR Green I, from day 3 until day 20. See FIG. 8B.
row,Structure (SMILES),Condition of mice after prophylactic treatment
1,"CC1(C)c2nc(-c3ccc(F)cc3)c(Nc3ccc(Cl)cc3)n2CCN1C(=O)CN [GNF179, reference compound]",still healthy and alive

# Tested on: P. falciparum Dd2
# Assay: 72 h SYBR Green I assay (Dd2 Proliferation Assay)
# Assay type: cell-based
# Conditions: 72 hour SYBR Green I; Table 2; read-out: Dd2 EC50 (nM) ± SD
# Method: Several analogs were synthesized based on the structure of TL5-135 for further study. […] For the data in Table 1, compounds were subjected to in vitro biochemical kinase assays done using recombinant human ephrin type-A receptor 2 (EPHA2) (expressed in insect cells) in a Z′-LYTE® FRET-based kinase assay. P. falciparum Dd2 EC50 was determined using the standard 72 hour SYBR Green I assay (Dd2 Proliferation Assay) as known in the art. […] The structures of compoundsTL5-134, TL5-139, and TL5-145 are shown below.
# In vitro biochemical kinase assays were done using recombinant human EPHA2 (expressed in insect cells) in a Z′-LYTE® FRET-based kinase assay. P. falciparum Dd2 EC50 was determined using the standard 72 h SYBR Green I assay.
# Asynchronous blood stage P. falciparum Dd2 cultures were plated at 1% parasitemia and 1% hematocrit in a 96-well plate and incubated with serial dilutions of compound for 72 hours at 37° C. in 5% CO2. DMSO concentrations were kept at a sub-lethal percentage (<0.2%). Five micromolar chloroquine was used as a negative parasite growth control. Plates were then frozen at −80° C. and thawed, and 100 μL SYBR Green I-containing lysis buffer (20 mM Tris-HCl, 5 mM EDTA, 0.8% Triton X-100, 0.08% saponin, and 0.0001% SYBR Green I) was added to the wells. After incubation for 45 minutes at room temperature protected from light, fluorescence emission was read with a multimode microplate reader, at 485 nm excitation and 530 nm emission. Results were normalized using untreated and chloroquine-treated controls, and EC50 was determined with CDD Vault.
# To establish the utility of kinase inhibitor compounds synthesized in the Gray laboratory as a source of novel antimalarial activities, the libraries (containing 1,100 compounds) were screened using the well-established SYBR Green I-based fluorescence assay as known in the art. This screen yielded 34 compounds with EC50<500 nM in the CQ^R Dd2 strain. These hits were subjected to counter-screening against human HepG2 cells using CellTiter 96® AQueous (Promega™) MTS-based cell proliferation assay to identify asexual and liver stage antiplasmodial hits.
# P. falciparum Dd2 EC50 was determined using SYBR Green I assay. For the selectivity index ([…]) cytotoxicity was determined using CellTiter 96® AQueous MTS. The liver stage assay was performed using P. berghei luciferase expressing parasites. All assays were performed with technical quadruplicates and 3 biological replicates. Assays have a Z′ factor >0.7.
row,EC50 [nM],Structure (SMILES)
1,99.5 ± 12.7,CCN1CCN(Cc2ccc(NC(=O)c3cc(F)cc(NC(=O)c4cncc(-c5cccs5)c4)c3)cc2C(F)(F)F)CC1 [LSW-03-054]
2,164 ± 14.7,CCN1CCN(Cc2ccc(NC(=O)c3cc(Cl)cc(NC(=O)c4cncc(C)c4)c3)cc2C(F)(F)F)CC1 [LSW-03-007]
3,330 ± 27.4,CCN1CCN(Cc2ccc(NC(=O)c3cc(Cl)cc(NC(=O)c4cncnc4)c3)cc2C(F)(F)F)CC1 [LSW-03-072]
4,108 ± 9.08,CCN1CCN(Cc2ccc(NC(=O)c3cc(Br)cc(NC(=O)c4cncc(-c5cccs5)c4)c3)cc2C(F)(F)F)CC1 [LSW-03-071]
5,43.8 ± 7.9,CCN1CCN(Cc2ccc(NC(=O)c3cc(Cl)cc(NC(=O)c4cncc(-c5ccc(C#N)cc5)c4)c3)cc2C(F)(F)F)CC1 [LSW-03-077]
6,86.6 ± 2.92,CCN1CCN(Cc2ccc(NC(=O)c3cc(NC(=O)c4cncc(-c5cccs5)c4)cc(C(F)(F)F)c3)cc2C(F)(F)F)CC1 [LSW-03-055]
7,314 ± 17.4,CCN1CCN(Cc2ccc(NC(=O)c3cc(Cl)cc(NC(=O)c4cccc(-c5cccs5)c4)c3)cc2C(F)(F)F)CC1 [LSW-03-015]
8,97.2 ± 23.3,CCN1CCN(Cc2ccc(NC(=O)c3cc(Cl)cc(NC(=O)c4cncc(-c5ccco5)c4)c3)cc2C(F)(F)F)CC1 [LSW-03-006]

# Second part, the molecule before the results:
row,Structure (SMILES),EC50 [nM]
1,O=C(Nc1cccc(C(F)(F)F)c1)c1cc(Cl)cc(NC(=O)c2cncc(-c3cccs3)c2)c1 [LSW-03-033],422 ± 36
2,CCN1CCN(Cc2ccc(NC(=O)c3cc(NC(=O)c4cncc(-c5cccs5)c4)ccc3F)cc2C(F)(F)F)CC1 [LSW-03-067],867 ± 68.3
3,CCN1CCN(Cc2ccc(NC(=O)c3cc(Cl)cc(NC(=O)c4cncc(-c5cccs5)c4)c3)cc2)CC1 [LSW-03-030],99.6 ± 8.6
4,O=C(Nc1ccnc(N2CCOCC2)c1)c1cc(Cl)cc(NC(=O)c2cncc(-c3cccs3)c2)c1 [LSW-03-081],732 ± 124
5,CCN1CCN(Cc2ccc(NC(=O)c3cc(NC(=O)c4cncc(-c5cccs5)c4)cc(Cl)c3F)cc2C(F)(F)F)CC1 [LSW-03-059],104 ± 8.67

# Same assay, conditions: Plasmodium falciparum, DD2, 72 h, read-out: Antiplasmodial Dd2 EC50 (nM) ± SD
row,Structure (SMILES),EC50 [nM]
1,CCN1CCN(Cc2ccc(NC(=O)c3cncc(NC(=O)c4cncc(-c5cccs5)c4)c3)cc2C(F)(F)F)CC1 [TL5-139],191
2,CCN1CCN(Cc2ccc(NC(=O)c3ccnc(NC(=O)c4cncc(-c5cccs5)c4)c3)cc2C(F)(F)F)CC1 [TL5-145],391
3,CCN1CCN(Cc2ccc(NC(=O)c3cc(NC(=O)c4cncc(-c5cccs5)c4)cc(OC)c3)cc2C(F)(F)F)CC1 [TL5-134],341

# Same assay, conditions: Plasmodium falciparum, DD2; 72 hour SYBR Green I; Table 2; read-out: Dd2 EC50 (nM) ± SD
row,EC50 [nM],Structure (SMILES)
1,2120,CCN1CCN(Cc2ccc(NC(=O)c3cc(Cl)cc(NC(=O)N4CCN(C)CC4)c3)cc2C(F)(F)F)CC1 [LSW-03-080]
2,407 ± 56,CCN1CCN(Cc2ccc(NC(=O)c3cc(Cl)cc(NC(=O)c4cccnc4)c3)cc2C(F)(F)F)CC1 [LSW-03-008]
3,315 ± 18.7,CCN1CCN(Cc2ccc(NC(=O)c3cc(Cl)cc(NCc4cncc(-c5cccs5)c4)c3)cc2C(F)(F)F)CC1 [LSW-03-014]

# Tested on: Pb-Luc sporozoites
# Assay: Therapeutic assay, 4-day Peters test against Pb-Luc sporozoites
# Assay type: in vivo, mice
# Conditions: 4 doses of 15 mg/kg at 6, 18, 30, 42 hours post infection
# Method: as §1, §2, §3
# However, the mice treated with TL5-135 as a therapeutic had about 2.4% parasitemia after 12 days post-infection (all negative control mice died between days 11-13). The parasitemia on day 21 (21 days post-infection) for the group of mice was 35%.
# as §4, §5
row,Structure (SMILES),Condition of mice after therapeutic treatment
1,"CC1(C)c2nc(-c3ccc(F)cc3)c(Nc3ccc(Cl)cc3)n2CCN1C(=O)CN [GNF179, reference compound]",healthy and without parasites

# Tested on: P. falciparum Dd2
# Assay: Rate of killing assay
# Assay type: cell-based
# Conditions: 10×EC50, 12-hour exposure then wash off
# Method: Asynchronous P. falciparum Dd2 cultures were plated at 1% parasitemia, 4% hematocrit into a 24-well plate, incubated at 37° C. in 5% CO2. Wells were treated with 10×EC50 of compound for 12, 24, or 48 hours before the compound was removed. Every 24 hours thereafter for 4 days total, culture samples were washed in 0.5% BSA and stained with 1×SYBR Green I and 60 μM MitoTracker Deep Red FM for 20 minutes at 37° C. After another wash in 0.5% BSA, samples were resuspended in PBS and analyzed via flow cytometry with a CytoFLEX S™, with 100,000 events recorded per sample. For gating, the following controls were used: uninfected RBCs, untreated culture, DHA-treated culture, and untreated culture without MitoTracker stain. Viable parasite percentage was determined by finding the fraction of SYBR Green/MitoTracker double positive cells from the total events. Analysis was performed with FlowJo software Version 10.
# Asynchronous cultures of P. falciparum Dd2 parasites were treated with 10×EC50 of the indicated compound for 12 hours prior to compound wash off. Flow cytometry with SYBR Green I (nuclear dye) and Mitotracker Deep Red FM (mitochondria staining) was done after compound wash-off every 24 hours after for […] (100,000 events/sample) to track parasitemia (data from 3 biological replicates±SEM).
row,Structure (SMILES),Killing profile
1,"C[C@H]1[C@@H](O)O[C@@H]2O[C@@]3(C)CC[C@H]4[C@H](C)CC[C@@H]1[C@@]24OO3 [dihydroartemisinin (DHA), dihydroartemisinin, reference compound]",pronounced irreversible killing
